# Source: patent US20130183459A1, “DEVICE AND METHOD FOR I[…] AND COUNTING MICROBES AND DETERMINING ANTIMICROBIAL SENSITIVITY” (priority 2011, published 2013)
# Test system: E. Coli B
# Assay: Antimicrobial sensitivity test by resistance signature (pulsed-voltage sampling)
# Assay type: cell-based
# Details: 0.9 mL of 10^3 CFU/mL E. Coli B in LB Broth + 0.1 mL antibiotic, room temperature; control slope remains negative; FIGS. 7A-7D
# Description: FIGS. 7A-7D depict signatures of microbial sample of 0.9 mL of a concentration of 10^3 CFU/mL of two-hour E. Coli B treated with 0.1 mL of antibiotics or antimicrobials and control samples in the absence thereof. What is common to all FIGS. 7A-7D is the slope for signatures with antibiotics or antimicrobials become positive, i.e., the resistance of the microbial sample increases, upon addition of the antibiotic or antimicrobial. The slope of the control samples remains negative.
# In further detail, a difference in the degree of the slope change for the signature can be observed. Such differences are due to the type of antibiotic or antimicrobial, and its mechanism of action. For example, sulfamethoxazole, FIG. 7C, causes inhibition of DNA synthesis in the cell, thereby aiming essential cell functions. In contrast, azithromycin, FIG. 7B, inhibits […] in a bacterium, thereby acting on latent cell functions.
# An overnight bacterial culture of E. coli B with a concentration of around 10^9 cells which had attained room temperature were diluted using LB Broth which had also attained room temperature to a final concentration of 10^3 cells. 0.9 ml of this solution was then placed into one sensor well which was connected to lead #1 of a reader unit. An additional 0.9 ml of the bacteria was placed into a second sensor well which was connected to lead #2 of a reader unit. […]
smiles,measurement,value
Cc1cc(NS(=O)(=O)c2ccc(N)cc2)no1 [sulfamethoxazole],slope of the resistance signature upon addition of the antibiotic or antimicrobial,steeper than for azithromycin
